Data taken from patent EP0095813A2, “Penetrating topical pharmaceutical compositions containing 9-(2-hydroxyethoxymethyl) guanine” (THE PROCTER & GAMBLE COMPANY, priority 1982, dated 1983).

Legend:
[1] = cited from earlier work
[2] = Skin penetration study, Franz diffusion apparatus, transport across human epidermis in vitro; type: in vitro ADME; settings: binary system with a cell-envelope disordering compound versus standard vehicle/solvent; heat-separated abdominal epidermis, about 31°C
Description: The following data illustrate the effects of incorporating 9-(2-hydroxyethoxymethyl) guanine into a standard vehicle/sol- vent versus the same pharmaceutical active used in a binary system with a cell-envelope disordering compound.
The above data reflect relative transport of 9-(2-hydroxyethoxymethyl) guanine across human epidermis in vitro.
In the above skin penetration studies, human skin, (heat- separated abdominal epidermis, taken at autopsy), was placed in a standard Franz diffusion apparatus (Crown Glass Co., Somerville, N.J.) in a horizontal position between a lower, capped diffusion cell and an upper, open cell. A normal saline solution was added to the lower diffusion cell, abutting the subcutaneous side of the skin, and the test composition comprising a solution of active drug in the carrier at indicated formulation was added to the diffusion cell abutting the epidermal side of the skin.
This cell assembly was kept in a constant-temperature room at about 31°C. At appropriate intervals, each diffusion cell assembly was opened and the diffusate from the cell abutting the subcutaneous side of the skin was withdrawn. Drug active in the diffusate was measured using standard analytical techniques. Each trial was run on a separate sample of human skin.

Penetration (relative transport across human epidermis in vitro) [2]: significantly enhanced
SMILES: Nc1nc2c(ncn2COCCO)c(=O)[nH]1 [9-(2-hydroxyethoxymethyl) guanine]
solubility in lipophilic solvent systems ([1]; lipophilic solvent systems): almost totally insoluble | solubility in water ([1]; water): slightly soluble
